Tested on: bone marrow-derived macrophages (BMDM)
Test: TNF-α and IL-6 production in mouse bone marrow-derived macrophages (ELISA)
Assay type: cell-based, C57BL/6J mice
Settings: mBMDM, 1 nM (1.8 ng/mL), 16 h
Procedure: The ability of Lipid A mimetics 1–3 to induce the production of TNF-α and IL-6 from bone marrow-derived macrophages (BMDM) in mice was subsequently examined and compared to that of synthetic E. coli Lipid A and E. coli MPLA, which are reliable positive controls due to their chemical purity and homogeneity (Figure 6). […] Likewise, 1 nM (1.8 ng/mL) of 1 or 2 triggered the release of a 3-fold higher amount of IL-6 (1500 pg/mL) compared to Lipid A (500 pg/mL).
Bone-marrow-derived microphages (BMDMs) were isolated and differentiated from the bone marrow of C57BL/6J mice. The bone marrow was flushed from femur and fibia with RPMI media. The erythrocytes were lysed with 0.88% ammonium chloride, 15 min at 37 °C. A single-cell suspension of the bone marrow cells was then seeded in cell culture flasks at a concentration of 1 × 10^6 cells/mL in RPMI supplemented with 20% FBS and 40 ng/mL recombinant M-CSF. The cell culture medium was changed on day 3. On day 6, the differentiated cells were trypsinized, counted, and seeded in 24-well plates at a concentration of 1 × 10^6 cells/mL in RPMI supplemented with 10% FBS. After 24 h, the cells were stimulated with Lipid A mimetics 1–3 and with synthetic E. coli Lipid A/MPLA (E. coli O111:B4 LPS was used as positive control) for 16 h. The nanomolar concentrations of 1–3 were calculated according to the MW of the synthetic compounds. The supernatants were then tested for cytokines using Ready-Set-Go ELISA kits (eBioscience).

SMILES: CCCCCCCCCCCCCC(=O)O[C@H](CCCCCCCCCCC)CC(=O)N[C@H]1[C@H](OC[C@H]2O[C@H](OP(=O)(O)O)[C@H](NC(=O)C[C@H](O)CCCCCCCCCCC)[C@@H](OC(=O)C[C@H](O)CCCCCCCCCCC)[C@@H]2O)O[C@H](CO)[C@@H](OP(=O)(O)O)[C@@H]1OC(=O)C[C@@H](CCCCCCCCCCC)OC(=O)CCCCCCCCCCCCC [Lipid A]
- IL-6 release: 500 pg/mL
